The text below walks through data of PubChem BioAssay AID1259407 (Chemical Carcinogenesis Research Information System (CCRIS), 2018).

This data set deals with CCRIS mutagenicity, Ames/micronucleus/aberration tests. The data set is described as follows: CCRIS mutagenicity studies.
Setting [1] is: Test System: AMES SALMONELLA TYPHIMURIUM, Strain/Indicator: TA98, Metabolic Activation: NONE, Method: STANDARD PLATE.
[2] abbreviates: Test System: AMES SALMONELLA TYPHIMURIUM, Strain/Indicator: TA98, Metabolic Activation: RAT, LIVER, S-9, AROCLOR 1254, Method: STANDARD PLATE.
Setting [3] is: Test System: AMES SALMONELLA TYPHIMURIUM, Strain/Indicator: TA100, Metabolic Activation: NONE, Method: STANDARD PLATE.
Setting [4] is: Test System: AMES SALMONELLA TYPHIMURIUM, Strain/Indicator: TA100, Metabolic Activation: RAT, LIVER, S-9, AROCLOR 1254, Method: STANDARD PLATE.
[5] abbreviates: Test System: AMES SALMONELLA TYPHIMURIUM, Strain/Indicator: TA1535, Metabolic Activation: NONE, Method: STANDARD PLATE.
The mark [6] stands for this setting: Test System: AMES SALMONELLA TYPHIMURIUM, Strain/Indicator: TA1535, Metabolic Activation: RAT, LIVER, S-9, AROCLOR 1254, Method: STANDARD PLATE.
Where [7] appears, read: Test System: AMES SALMONELLA TYPHIMURIUM, Strain/Indicator: TA1537, Metabolic Activation: NONE, Method: STANDARD PLATE.
Setting [8] is: Test System: AMES SALMONELLA TYPHIMURIUM, Strain/Indicator: TA1537, Metabolic Activation: RAT, LIVER, S-9, AROCLOR 1254, Method: STANDARD PLATE.
The mark [9] stands for this setting: Test System: AMES SALMONELLA TYPHIMURIUM, Strain/Indicator: TA1538, Metabolic Activation: NONE, Method: STANDARD PLATE.
Where [10] appears, read: Test System: AMES SALMONELLA TYPHIMURIUM, Strain/Indicator: TA1538, Metabolic Activation: RAT, LIVER, S-9, AROCLOR 1254, Method: STANDARD PLATE.
Where [11] appears, read: Test System: AMES SALMONELLA TYPHIMURIUM, Strain/Indicator: TA100, Metabolic Activation: NONE, Method: PREINCUBATION

Activity calls are given as the source filed them. The rule behind the calls is not given here.

In the case of `CCCCOCCOCCOCc1cc2c(cc1CCC)OCO2`, the mutagenic call (End Point: IN VITRO CHROMOSOMAL ABERRATIONS, Test System: CHINESE HAMSTER OVARY CELLS, Metabolic Activation: NONE) was “inactive; negative; precipitation occurred at 287 ug/ml”; the mutagenic call (End Point: IN VITRO CHROMOSOMAL ABERRATIONS, Test System: CHINESE HAMSTER OVARY CELLS, Metabolic Activation: RAT, LIVER, S-9, AROCLOR 1254) was “inactive; negative; precipitation occurred at 496 ug/ml”; the mutagenic call (Test System: AMES SALMONELLA TYPHIMURIUM, Strain/Indicator: TA97, Metabolic Activation: NONE, Method: PREINCUBATION) was “inactive; negative”; the mutagenic call (Test System: AMES SALMONELLA TYPHIMURIUM, Strain/Indicator: TA97, Metabolic Activation: RAT, LIVER, S-9, AROCLOR 1254, Method: PREINCUBATION) is “inactive; negative”; the mutagenic call under setting [1] is “inactive; negative”; the mutagenic call under setting [2] was “inactive; negative”. The mutagenic call was “inactive; negative” under setting [3]; “inactive; negative” under setting [4]; “inactive; negative” (Test System: AMES SALMONELLA TYPHIMURIUM, Strain/Indicator: TA102, Metabolic Activation: NONE, Method: PREINCUBATION); “inactive; negative” (Test System: AMES SALMONELLA TYPHIMURIUM, Strain/Indicator: TA102, Metabolic Activation: RAT, LIVER, S-9, AROCLOR 1254, Method: PREINCUBATION); “inactive; negative” under setting [5]; “inactive; negative” under setting [6]. Besides, the mutagenic call reads like this: under setting [7], “inactive; negative”; under setting [8], “inactive; negative”; under setting [9], “inactive; negative”; under setting [10], “inactive; negative”; (Test System: CHINESE HAMSTER OVARY, Strain/Indicator: CHO-K1-BH4 (HGPRT)/6-THIOGUANINE, Metabolic Activation: NONE) “inactive; negative”; (Test System: CHINESE HAMSTER OVARY, Strain/Indicator: CHO-K1-BH4 (HGPRT)/6-THIOGUANINE, Metabolic Activation: RAT, LIVER, S-9, AROCLOR 1254) “inactive; negative”. Further, the mutagenic call is, setting by setting: (Test System: UDS HUMAN HEPATOCYTES, Strain/Indicator: THY INCORP, Metabolic Activation: NONE, Method: AUTORADIOGRAPHY) “inactive; negative”; (Test System: UDS RAT HEPATOCYTES, Strain/Indicator: THY INCORP, Metabolic Activation: NONE, Method: AUTORADIOGRAPHY) “inactive; negative”.

For `CC(C(=O)O)c1cccc(C(=O)c2ccccc2)c1` (configuration not stated), the mutagenic call was “inactive; negative” (Test System: AMES SALMONELLA TYPHIMURIUM, Strain/Indicator: TA97A, Metabolic Activation: NONE, Method: STANDARD PLATE); “inactive; negative” (Test System: AMES SALMONELLA TYPHIMURIUM, Strain/Indicator: TA97A, Metabolic Activation: RAT, LIVER, S-9, PHENOBARBITAL, Method: STANDARD PLATE); “inactive; negative” under setting [3]; “inactive; negative” (Test System: AMES SALMONELLA TYPHIMURIUM, Strain/Indicator: TA100, Metabolic Activation: RAT, LIVER, S-9, PHENOBARBITAL, Method: STANDARD PLATE); “inactive; negative” (Test System: AMES SALMONELLA TYPHIMURIUM, Strain/Indicator: TA102, Metabolic Activation: NONE, Method: STANDARD PLATE); “inactive; negative” (Test System: AMES SALMONELLA TYPHIMURIUM, Strain/Indicator: TA102, Metabolic Activation: RAT, LIVER, S-9, PHENOBARBITAL, Method: STANDARD PLATE).

As for `CSC[C@H](NC(=O)COc1cccc2cnccc12)C(=O)N[C@@H](Cc1ccccc1)[C@H](O)C(=O)N1CSC[C@H]1C(=O)NC(C)(C)C`, the mutagenic call was “inactive; negative” (Test System: AMES SALMONELLA TYPHIMURIUM, Strain/Indicator: TA98, Metabolic Activation: HAMSTER, LIVER, S-9, AROCLOR 1254, Method: STANDARD PLATE); “inactive; negative” under setting [1]; “inactive; negative” under setting [2]; “inactive; negative” (Test System: AMES SALMONELLA TYPHIMURIUM, Strain/Indicator: TA100, Metabolic Activation: HAMSTER, LIVER, S-9, AROCLOR 1254, Method: STANDARD PLATE); “inactive; negative” under setting [3]; “inactive; negative” under setting [4]. The mutagenic call by setting is: (Test System: AMES SALMONELLA TYPHIMURIUM, Strain/Indicator: TA1535, Metabolic Activation: HAMSTER, LIVER, S-9, AROCLOR 1254, Method: STANDARD PLATE) “inactive; negative”; under setting [5], “inactive; negative”; under setting [6], “inactive; negative”; (Test System: AMES SALMONELLA TYPHIMURIUM, Strain/Indicator: TA1537, Metabolic Activation: HAMSTER, LIVER, S-9, AROCLOR 1254, Method: STANDARD PLATE) “inactive; negative”; under setting [7], “inactive; negative”; under setting [8], “inactive; negative”. Moreover, the mutagenic call was “inactive; negative” (Test System: AMES SALMONELLA TYPHIMURIUM, Strain/Indicator: TA1538, Metabolic Activation: HAMSTER, LIVER, S-9, AROCLOR 1254, Method: STANDARD PLATE); “inactive; negative” under setting [9]; “inactive; negative” under setting [10]; “inactive; negative” (Test System: Mouse lymphoma, Strain/Indicator: L5178Y (tk+/tk-), Metabolic Activation: None, Method: Suspension/plate); “active; equivocal (previous evaluation positive)” (Test System: Mouse lymphoma, Strain/Indicator: L5178Y (tk+/tk-), Metabolic Activation: Rat, Liver, S-9, Aroclor 1254, Method: Suspension/plate).

Turning to `CC12OOC1Oc1ccccc12` (configuration not stated), the mutagenic call under setting [11] is “active; positive”.

For `COc1c(C)c2c(c(O)c1C/C=C(\C)CCC(=O)O)C(=O)OC2`, the mutagenic call was “inactive; negative” (Test System: AMES SALMONELLA TYPHIMURIUM, Strain/Indicator: TA98, Metabolic Activation: RAT, LIVER, MICROSOMES, PHENOBARBITAL, Method: STANDARD PLATE) and “inactive; negative” (Test System: AMES SALMONELLA TYPHIMURIUM, Strain/Indicator: TA100, Metabolic Activation: RAT, LIVER, MICROSOMES, PHENOBARBITAL, Method: STANDARD PLATE).

Regarding `Cc1cnc2c(n1)c(C)c(C)c1c2nc(N)n1C`, under setting [2], the mutagenic call is “active; positive”.

For the molecule `Nc1ccc(CO)c([N+](=O)[O-])c1`, the mutagenic call is, setting by setting: (Test System: AMES SALMONELLA TYPHIMURIUM, Strain/Indicator: TA98, Metabolic Activation: NONE, Method: PREINCUBATION) “active; positive”; (Test System: AMES SALMONELLA TYPHIMURIUM, Strain/Indicator: TA98, Metabolic Activation: RAT, LIVER, S-9, PHENOBARBITAL AND 5,6-BENZOFLAVONE, Method: PREINCUBATION) “active; positive”; under setting [11], “active; positive”; (Test System: AMES SALMONELLA TYPHIMURIUM, Strain/Indicator: TA100, Metabolic Activation: RAT, LIVER, S-9, PHENOBARBITAL AND 5,6-BENZOFLAVONE, Method: PREINCUBATION) “active; positive”.

On to `NC(Cc1c[nH]c2ccccc12)C(=O)O` (configuration not stated), for which the mutagenic call (Test System: AMES SALMONELLA TYPHIMURIUM, Strain/Indicator: TA98, Metabolic Activation: RAT LIVER S-9, CHLOROPHENE, Method: STANDARD PLATE (COMPOUND HEATED AT 250 DEGREES CELSIUS FOR 20 MIN)) was “inactive; negative”.
